Structures are written as SMILES. Where a name gives a salt, the structure may show the parent alone. Where only a bound is given, the exact number is not on record here.

This passage reports IC50 and Kb results from patent publication US20190152992A1, “BENZODIOXANE DERIVATIVES AND THEIR PHARMACEUTICAL USE” (Orion Corporation, priority 2016, published 2019).

One experiment concerns the target T1, human alpha2A receptors (Homo sapiens, UniProt P08913).
T1 sequence (P08913 1-465): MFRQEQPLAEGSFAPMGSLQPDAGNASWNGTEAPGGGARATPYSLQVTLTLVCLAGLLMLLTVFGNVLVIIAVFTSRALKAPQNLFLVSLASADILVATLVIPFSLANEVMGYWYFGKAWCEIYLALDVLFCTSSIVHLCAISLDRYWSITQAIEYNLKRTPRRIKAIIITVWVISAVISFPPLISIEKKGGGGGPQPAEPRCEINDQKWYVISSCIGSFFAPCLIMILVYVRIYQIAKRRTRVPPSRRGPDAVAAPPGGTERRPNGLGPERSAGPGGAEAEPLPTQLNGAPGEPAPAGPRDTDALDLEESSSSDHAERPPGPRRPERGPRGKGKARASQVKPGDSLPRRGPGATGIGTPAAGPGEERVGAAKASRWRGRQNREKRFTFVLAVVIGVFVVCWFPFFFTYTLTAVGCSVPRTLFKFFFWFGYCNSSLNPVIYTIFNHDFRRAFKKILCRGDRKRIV
Nature of the experiment: cell-based.

In a further experiment the target is T2, human alpha2C receptors (Homo sapiens, UniProt P18825).
T2 sequence (P18825 1-462): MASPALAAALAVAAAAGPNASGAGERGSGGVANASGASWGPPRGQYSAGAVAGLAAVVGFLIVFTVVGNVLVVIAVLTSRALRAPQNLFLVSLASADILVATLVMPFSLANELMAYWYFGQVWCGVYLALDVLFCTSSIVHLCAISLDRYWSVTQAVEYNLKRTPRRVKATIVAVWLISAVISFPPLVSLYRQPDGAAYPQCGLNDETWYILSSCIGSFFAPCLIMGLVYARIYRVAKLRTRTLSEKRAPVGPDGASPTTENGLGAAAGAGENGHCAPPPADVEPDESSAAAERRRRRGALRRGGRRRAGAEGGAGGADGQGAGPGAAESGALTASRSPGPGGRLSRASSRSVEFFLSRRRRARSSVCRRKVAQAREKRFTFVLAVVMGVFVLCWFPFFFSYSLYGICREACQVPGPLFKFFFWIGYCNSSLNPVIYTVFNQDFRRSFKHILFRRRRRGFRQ
Description: Determination of alpha2C antagonistic activity in vitro (FLIPR calcium assay). Conditions: for Kb: Alpha 2C Adrenaline Kb, Kb calculated from IC50 with the Cheng-Prusoff equation, adrenaline as agonist, CHO cells, human alpha2C.

For `CC1CCN([C@H]2CCCN(C[C@H]3COc4ccccc4O3)C2)C1=O` (single isomer, unassigned; diastereomer 1) [example 98], on human alpha2A receptors, the IC50 (usually the concentration that gives 50% inhibition) was over 10000 nM and the Kb was over 449 nM. Moreover, at human alpha2C receptors, the IC50 was 9.26 nM and the Kb is 0.93 nM.

At human alpha2A receptors, `Cc1nc2cncnc2n1[C@H]1CCCN(C[C@H]2COc3ccccc3O2)C1` [example 160, 9-((S)-1-(((S)-2,3-Dihydrobenzo[b][1,4]dioxin-2-yl)methyl)piperidin-3-yl)-8-methyl-9H-purine] had an IC50 of over 10000 nM and a Kb of over 449 nM. Besides, on human alpha2C receptors, the IC50 was determined as 0.15 nM and the Kb was 0.016 nM.

On human alpha2A receptors, `CSc1ncc2c(n1)CN([C@H]1CCCN(C[C@H]3COc4ccccc4O3)C1)C2=O` [example 22, 6-((S)-1-(((S)-2,3-Dihydrobenzo[b][1,4]dioxin-2-yl)methyl)piperidin-3-yl)-2-(methylthio)-6,7-dihydro-5H-pyrrolo[3,4-d]pyrimidin-5-one] showed an IC50 of over 10000 nM and a Kb of over 449 nM. Besides, at human alpha2C receptors, the IC50 is under 0.01 nM and the Kb is under 0.001 nM.

Turning to `O=C1c2cccnc2CN1[C@H]1CCCN(C[C@H]2COc3ccccc3O2)C1` [example 10, 6-((S)-1-(((S)-2,3-Dihydrobenzo[b][1,4]dioxin-2-yl)methyl)piperidin-3-yl)-6,7-dihydro-5H-pyrrolo[3,4-b]pyridin-5-one], at human alpha2A receptors, the IC50 is over 10000 nM and the Kb is over 449 nM. Further, at human alpha2C receptors, the IC50 turned out to be 3.78 nM and the Kb was 0.379 nM.

Regarding `O=C1c2cncnc2CN1[C@H]1CCCN(C[C@H]2COc3ccccc3O2)C1` [example 23, 6-((S)-1-(((S)-2,3-Dihydrobenzo[b][1,4]dioxin-2-yl)methyl)piperidin-3-yl)-6,7-dihydro-5H-pyrrolo[3,4-d]pyrimidin-5-one], the figures for the IC50 on human alpha2A receptors and on human alpha2C receptors were over 10000 nM and 18 nM, respectively. For the same compound, the values for the Kb at human alpha2A receptors and on human alpha2C receptors were over 449 nM and 1.81 nM, respectively.

For `CC(C)C1CN([C@H]2CCCN(C[C@H]3COc4ccccc4O3)C2)C(=O)O1` (stereo partly drawn) [example 19, 3-((S)-1-(((S)-2,3-Dihydrobenzo[b][1,4]dioxin-2-yl)methyl)piperidin-3-yl)-5-isopropyloxazolidin-2-one], the values for the IC50 at human alpha2A receptors and at human alpha2C receptors were over 10000 nM and 7.65 nM, respectively. Further, the Kb on human alpha2A receptors is over 449 nM; at human alpha2C receptors, 0.771 nM.

As to `O=C1c2cccc(F)c2C(=O)N1[C@H]1CCCN(C[C@H]2COc3ccccc3O2)C1` [example 63, 2-((S)-1-(((S)-2,3-Dihydrobenzo[b][1,4]dioxin-2-yl)methyl)piperidin-3-yl)-4-fluoroisoindoline-1,3-dione hydrochloride], on human alpha2A receptors, the half-inhibitory concentration (IC50) was over 10000 nM and the Kb was over 449 nM. Further, at human alpha2C receptors, the IC50 was under 0.1 nM and the Kb was under 0.01 nM.

Regarding `Clc1ccc2ncn([C@H]3CCCN(C[C@H]4COc5ccccc5O4)C3)c2c1` [example 89, 6-Chloro-1-((S)-1-(((S)-2,3-dihydrobenzo[b][1,4]dioxin-2-yl)methyl)piperidin-3-yl)-1H-benzo[d]imidazole], the results for the IC50 at human alpha2A receptors and on human alpha2C receptors were 9460 nM and under 0.1 nM, respectively. The Kb on human alpha2A receptors was 425 nM; at human alpha2C receptors it was under 0.01 nM.

At human alpha2A receptors, `CN(C)C(=O)CN1CC(=O)N([C@H]2CCCN(C[C@H]3COc4ccccc4O3)C2)C1=O` [example 109, 2-(3-((S)-1-(((S)-2,3-Dihydrobenzo[b][1,4]dioxin-2-yl)methyl)piperidin-3-yl)-2,4-dioxoimidazolidin-1-yl)-N,N-dimethylacetamide] registered an IC50 of over 10000 nM and a Kb of over 449 nM. For the same compound, at human alpha2C receptors, the IC50 is 0.117 nM and the Kb is 0.014 nM.

On human alpha2A receptors, `O=C1C(=O)N([C@H]2CCCN(C[C@H]3COc4ccccc4O3)C2)C(=O)N1Cc1ccncc1` [example 140, 1-((S)-1-(((S)-2,3-Dihydrobenzo[b][1,4]dioxin-2-yl)methyl)piperidin-3-yl)-3-(pyridin-4-ylmethyl)imidazolidine-2,4,5-trione] registered an IC50 of over 10000 nM and a Kb of over 449 nM. At human alpha2C receptors, the IC50 came out at 2.19 nM and the Kb is 0.22 nM.

Take `COc1cccc2c1C(=O)N([C@H]1CCCN(C[C@H]3COc4ccccc4O3)C1)C2=O` [example 65, 2-((S)-1-(((S)-2,3-Dihydrobenzo[b][1,4]dioxin-2-yl)methyl)piperidin-3-yl)-4-methoxyisoindoline-1,3-dione]: at human alpha2A receptors, the IC50 is over 10000 nM and the Kb was over 449 nM. For the same compound, on human alpha2C receptors, the IC50 was under 0.1 nM and the Kb is under 0.01 nM.

As to `O=C1NC(c2ccccc2)C(=O)N1[C@H]1CCCN(C[C@H]2COc3ccccc3O2)C1` (stereo partly drawn) [example 114, 3-((S)-1-(((S)-2,3-Dihydrobenzo[b][1,4]dioxin-2-yl)methyl)piperidin-3-yl)-5-phenylimidazolidine-2,4-dione], on human alpha2A receptors, the IC50 was 2340 nM and the Kb turned out to be 105 nM. Further, on human alpha2C receptors, the IC50 was under 0.1 nM and the Kb was under 0.01 nM.

On to `O=c1[nH]c2ccc(F)cc2n1[C@H]1CCCN(C[C@H]2COc3ccccc3O2)C1` [example 86, 1-((S)-1-(((S)-2,3-Dihydrobenzo[b][1,4]dioxin-2-yl)methyl)piperidin-3-yl)-6-fluoro-1H-benzo[d]imidazol-2(3H)-one], for which the values for the IC50 on human alpha2A receptors and on human alpha2C receptors were over 10000 nM and under 0.1 nM, respectively. Moreover, the Kb at human alpha2A receptors is over 449 nM; on human alpha2C receptors, under 0.01 nM.

On human alpha2A receptors, `CN(C)CCN1C(=O)C(=O)N([C@H]2CCCN(C[C@H]3COc4ccccc4O3)C2)C1=O` [example 135, 1-((S)-1-(((S)-2,3-Dihydrobenzo[b][1,4]dioxin-2-yl)methyl)-piperidin-3-yl)-3-(2-(dimethylamino)ethyl)imidazolidine-2,4,5-trione] came in with an IC50 of over 10000 nM and a Kb of over 449 nM. For the same compound, on human alpha2C receptors, the half-inhibitory concentration (IC50) came to 444 nM and the Kb is 44.7 nM.

On to `Cc1nc2ccccc2n1[C@H]1CCCN(C[C@H]2COc3ccccc3O2)C1` [example 150, 1-((S)-1-(((S)-2,3-Dihydrobenzo[b][1,4]dioxin-2-yl)methyl)piperidin-3-yl)-2-methyl-1H-benzo[d]imidazole], for which, at human alpha2A receptors, the IC50 worked out at 4480 nM and the Kb was found to be 201 nM. Further, at human alpha2C receptors, the IC50 was under 0.1 nM and the Kb is under 0.01 nM.

`O=C1c2ccccc2C(=O)N1[C@H]1CCCN(C[C@H]2COc3ccccc3O2)C1` [example 61, 2-((S)-1-(((S)-2,3-Dihydrobenzo[b][1,4]dioxin-2-yl)methyl)piperidin-3-yl)isoindoline-1,3-dione]: at human alpha2A receptors, the IC50 was over 10000 nM and the Kb is over 449 nM. In addition, at human alpha2C receptors, the IC50 is 0.062 nM and the Kb was 0.006 nM.

As to `O=C1C(c2ccccc2)CCN1[C@H]1CCCN(C[C@H]2COc3ccccc3O2)C1` (stereo partly drawn) [example 31, 1-((S)-1-(((S)-2,3-Dihydrobenzo[b][1,4]dioxin-2-yl)methyl)piperidin-3-yl)-3-phenylpyrrolidin-2-one], on human alpha2A receptors, the IC50 is over 10000 nM and the Kb was over 449 nM. Further, at human alpha2C receptors, the IC50 was over 10000 nM and the Kb is over 1010 nM.

Consider `CCN1C(=O)CC(=O)N([C@H]2CCCN(C[C@H]3COc4ccccc4O3)C2)C1=O` [example 96, 1-((S)-1-(((S)-2,3-Dihydrobenzo[b][1,4]dioxin-2-yl)methyl)-piperidin-3-yl)-3-ethylpyrimidine-2,4,6(1H,3H,5H)-trione], for which, on human alpha2A receptors, the IC50 is over 10000 nM and the Kb was over 449 nM. Also, at human alpha2C receptors, the IC50 is 15.1 nM and the Kb was 1.52 nM.

With `O=C1c2ccncc2CN1[C@H]1CCCN(C[C@H]2COc3ccccc3O2)C1` [example 76, 2-((S)-1-(((S)-2,3-Dihydrobenzo[b][1,4]dioxin-2-yl)methyl)piperidin-3-yl)-2,3-dihydro-1H-pyrrolo[3,4-c]pyridin-1-one], the half-maximal inhibitory concentration (IC50) at human alpha2A receptors is over 10000 nM; on human alpha2C receptors it was 1770 nM. Also, the results for the Kb on human alpha2A receptors and at human alpha2C receptors were over 449 nM and 178 nM, respectively.

On to `Cc1nc2cc(F)c(F)cc2n1[C@H]1CCCN(C[C@H]2COc3ccccc3O2)C1` [example 28, 1-((S)-1-(((S)-2,3-Dihydrobenzo[b][1,4]dioxin-2-yl)methyl)piperidin-3-yl)-5,6-difluoro-2-methyl-1H-benzo[d]imidazole], for which, at human alpha2A receptors, the IC50 is over 10000 nM and the Kb was over 449 nM. At human alpha2C receptors, the IC50 amounted to 5.43 nM and the Kb is 0.547 nM.
